Patent US10100033B2 (dated 2018)

melting point: 87 to 91 °C
Structure (SMILES): CCN(C(C)=O)c1cn(-c2cccnc2)nc1Cl
